IC50 data for 14 compounds are collected here from ChEMBL document CHEMBL1136415, “3-Acylamino-azetidin-2-one as a novel class of cysteine proteases inhibitors” (Bioorg Med Chem Lett, 2003).

Where only a bound is given, the exact number is not on record here.

One experiment concerns the target Procathepsin L (Homo sapiens, UniProt P07711). The experiment is described as follows: Inhibition of recombinant human Cathepsin L.
A further experiment concerns the target T1, Cathepsin K (Homo sapiens, UniProt P43235).
T1 sequence (P43235 whole entry): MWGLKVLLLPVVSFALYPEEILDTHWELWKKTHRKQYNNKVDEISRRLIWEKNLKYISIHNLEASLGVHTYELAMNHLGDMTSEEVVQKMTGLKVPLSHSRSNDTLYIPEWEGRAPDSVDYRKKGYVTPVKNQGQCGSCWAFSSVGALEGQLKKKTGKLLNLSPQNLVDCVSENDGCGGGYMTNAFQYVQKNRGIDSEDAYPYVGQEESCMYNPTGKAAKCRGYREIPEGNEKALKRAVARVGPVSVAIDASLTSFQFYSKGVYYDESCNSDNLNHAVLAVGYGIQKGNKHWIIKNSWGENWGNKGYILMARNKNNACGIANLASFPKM
The experiment is described as follows: Inhibition of recombinant human Cathepsin K.

A further experiment concerns the target Cathepsin B (Rattus norvegicus, UniProt P00787). The experiment is described as follows: Inhibition of recombinant rat Cathepsin B.
The target in the next experiment is Cathepsin S (Homo sapiens, UniProt P25774). The experiment is described as follows: Inhibition of recombinant human cathepsin S.
The target in a further experiment is T2, Neutrophil elastase (Homo sapiens, UniProt P08246).
T2 sequence (P08246 whole entry): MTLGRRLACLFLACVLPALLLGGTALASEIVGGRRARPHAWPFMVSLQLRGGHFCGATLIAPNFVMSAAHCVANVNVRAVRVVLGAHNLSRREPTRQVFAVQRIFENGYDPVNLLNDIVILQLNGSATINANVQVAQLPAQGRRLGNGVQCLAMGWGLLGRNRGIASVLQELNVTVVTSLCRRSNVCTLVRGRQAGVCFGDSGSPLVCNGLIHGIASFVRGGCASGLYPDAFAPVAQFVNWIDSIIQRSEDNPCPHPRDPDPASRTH
The experiment is described as follows: Inhibition of human leukocyte elastase(HLE).

Sequence of Cathepsin B (P00787 whole entry): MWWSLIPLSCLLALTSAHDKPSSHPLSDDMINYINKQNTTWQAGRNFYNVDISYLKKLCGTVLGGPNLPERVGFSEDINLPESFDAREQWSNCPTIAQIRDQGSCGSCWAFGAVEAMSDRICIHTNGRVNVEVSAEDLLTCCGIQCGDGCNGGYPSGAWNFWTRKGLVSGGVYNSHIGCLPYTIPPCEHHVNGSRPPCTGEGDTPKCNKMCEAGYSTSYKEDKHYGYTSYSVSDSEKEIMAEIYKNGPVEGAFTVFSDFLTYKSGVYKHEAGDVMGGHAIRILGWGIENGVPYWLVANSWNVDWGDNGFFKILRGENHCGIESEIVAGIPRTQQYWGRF
Sequence of Procathepsin L (P07711 whole entry): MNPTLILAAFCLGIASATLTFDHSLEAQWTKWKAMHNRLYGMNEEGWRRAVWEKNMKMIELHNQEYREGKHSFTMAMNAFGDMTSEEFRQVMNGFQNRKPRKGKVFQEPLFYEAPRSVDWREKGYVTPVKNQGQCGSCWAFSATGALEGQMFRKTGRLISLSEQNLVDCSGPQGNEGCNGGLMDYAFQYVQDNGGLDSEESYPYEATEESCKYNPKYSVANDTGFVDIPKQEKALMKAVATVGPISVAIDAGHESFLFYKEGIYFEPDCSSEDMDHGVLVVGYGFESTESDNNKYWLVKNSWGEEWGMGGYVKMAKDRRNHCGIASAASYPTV
Sequence of Cathepsin S (P25774 whole entry): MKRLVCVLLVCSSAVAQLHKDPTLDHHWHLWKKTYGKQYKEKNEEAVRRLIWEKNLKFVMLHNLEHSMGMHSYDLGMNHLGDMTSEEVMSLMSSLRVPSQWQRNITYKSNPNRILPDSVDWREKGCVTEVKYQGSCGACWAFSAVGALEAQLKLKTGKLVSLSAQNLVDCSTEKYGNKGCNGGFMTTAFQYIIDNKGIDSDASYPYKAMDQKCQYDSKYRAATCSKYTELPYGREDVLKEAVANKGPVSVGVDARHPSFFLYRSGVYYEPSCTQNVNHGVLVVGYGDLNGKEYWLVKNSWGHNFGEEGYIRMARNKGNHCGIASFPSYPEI

The term IC50 denotes the concentration needed to halve the response being measured. `O=C(N[C@@H](Cc1ccccc1)C(=O)N[C@@H]1CNC1=O)OCc1ccccc1`: the IC50 was 37400 nM at Procathepsin L; more than 5000 nM on Cathepsin K; 13600 nM at Cathepsin B; more than 5000 nM at Cathepsin S; more than 50000 nM against Neutrophil elastase.

As for `O=C(N[C@@H](Cc1ccccc1)C(=O)N[C@H]1CNC1=O)OCc1ccccc1`, the IC50 is 2700 nM at Cathepsin B and more than 50000 nM at Neutrophil elastase.

In the case of `O=C(N[C@@H](Cc1ccccc1)C(=O)N[C@@H]1C(=O)N[C@H]1Oc1ccccc1)OCc1ccccc1`, the IC50 is 100 nM at Cathepsin K, 10900 nM at Cathepsin B, 330 nM on Cathepsin S and more than 30000 nM against Neutrophil elastase.

On to `O=C(N[C@@H](Cc1ccccc1)C(=O)N[C@@H]1C(=O)N[C@H]1OCc1ccccc1)OCc1ccccc1`, for which the IC50 on Procathepsin L was 3960 nM; on Cathepsin K it was 2500 nM; on Cathepsin B, 32600 nM; on Cathepsin S it was more than 2500 nM; on Neutrophil elastase, more than 50000 nM.

As for `O=C(N[C@@H](Cc1ccccc1)C(=O)N[C@@H]1C(=O)N[C@H]1OC(=O)c1ccccc1)OCc1ccccc1`, the IC50 on Procathepsin L is 166 nM; on Cathepsin K, 100 nM; on Cathepsin B, 27500 nM; on Cathepsin S, 20 nM; against Neutrophil elastase it was more than 50000 nM.

For `O=C(N[C@@H](Cc1ccccc1)C(=O)N[C@@H]1C(=O)N[C@H]1S(=O)(=O)c1ccccc1)OCc1ccccc1`, the IC50 on Procathepsin L was 0.1 nM; on Cathepsin K, 6.5 nM; on Cathepsin S, 48 nM; against Neutrophil elastase it was more than 50000 nM.

Consider `O=C(CCc1ccccc1)O[C@@H]1NC(=O)[C@H]1NC(=O)[C@H](Cc1ccccc1)NC(=O)OCc1ccccc1`, for which the IC50 at Procathepsin L was 47 nM; at Cathepsin K, 38 nM; at Cathepsin B, 9710 nM; on Cathepsin S, 41 nM; on Neutrophil elastase it was more than 50000 nM.

As to `O=C(N[C@@H](Cc1ccccc1)C(=O)N[C@@H]1C(=O)N[C@@H]1Oc1ccccc1)OCc1ccccc1`, the IC50 was 16 nM at Cathepsin K, 430 nM at Cathepsin B and more than 30000 nM against Neutrophil elastase.

For the compound `CC(C)(C)O[C@@H]1NC(=O)[C@H]1NC(=O)[C@H](Cc1ccccc1)NC(=O)OCc1ccccc1`, the IC50 is 780 nM on Procathepsin L; 2500 nM at Cathepsin K; 11400 nM at Cathepsin B; more than 2500 nM on Cathepsin S; more than 50000 nM at Neutrophil elastase.

With `CCCCO[C@@H]1NC(=O)[C@H]1NC(=O)[C@H](Cc1ccccc1)NC(=O)OCc1ccccc1`, the IC50 was 163 nM at Procathepsin L; 100 nM on Cathepsin K; 7010 nM at Cathepsin B; 355 nM on Cathepsin S; more than 50000 nM against Neutrophil elastase.

Take `O=C(N[C@@H](Cc1ccccc1)C(=O)N[C@@H]1C(=O)N[C@@H]1Sc1ccccc1)OCc1ccccc1`: the IC50 was 15 nM at Procathepsin L; 72 nM on Cathepsin K; 39700 nM on Cathepsin B; 2500 nM on Cathepsin S; more than 50000 nM against Neutrophil elastase.

Turning to `CC(C)CO[C@@H]1NC(=O)[C@H]1NC(=O)[C@H](Cc1ccccc1)NC(=O)OCc1ccccc1`, the IC50 is 91 nM on Procathepsin L; 2300 nM on Cathepsin K; 6460 nM at Cathepsin B; more than 2500 nM at Cathepsin S; more than 50000 nM against Neutrophil elastase.

On to `O=C(N[C@@H](Cc1ccccc1)C(=O)N[C@@H]1C(=O)N[C@H]1Sc1ccccc1)OCc1ccccc1`, for which the IC50 on Procathepsin L was 0.1 nM; on Cathepsin K, 8.4 nM; on Cathepsin B, 10500 nM; at Cathepsin S, 330 nM; against Neutrophil elastase, more than 50000 nM.

For `CC(=O)O[C@@H]1NC(=O)[C@H]1NC(=O)[C@H](Cc1ccccc1)NC(=O)OCc1ccccc1`, the IC50 at Procathepsin L is 42 nM; on Cathepsin K it was 100 nM; on Cathepsin B, 470 nM; on Cathepsin S it was 207 nM; against Neutrophil elastase it was more than 10000 nM.
